Data taken from US9079876B2, “Imidazole derivatives and preparation method and use thereof” (Beijing Orbiepharm Co., Ltd., priority 2010, dated 2015).

What was measured:
COX-2 = molecular target: T1, COX-2 (Canis lupus familiaris, UniProt Q8SPQ9); test: Dog whole blood in vitro activity assay, COX-2; format: cell-based, beagle dog
T1 construct: in vitro activity study using beagle dog whole blood was conducted; from tissue; host or cells: beagle dog whole blood, stimulated with LPS (by the same method as for human blood)
T1 sequence (Q8SPQ9 18-604): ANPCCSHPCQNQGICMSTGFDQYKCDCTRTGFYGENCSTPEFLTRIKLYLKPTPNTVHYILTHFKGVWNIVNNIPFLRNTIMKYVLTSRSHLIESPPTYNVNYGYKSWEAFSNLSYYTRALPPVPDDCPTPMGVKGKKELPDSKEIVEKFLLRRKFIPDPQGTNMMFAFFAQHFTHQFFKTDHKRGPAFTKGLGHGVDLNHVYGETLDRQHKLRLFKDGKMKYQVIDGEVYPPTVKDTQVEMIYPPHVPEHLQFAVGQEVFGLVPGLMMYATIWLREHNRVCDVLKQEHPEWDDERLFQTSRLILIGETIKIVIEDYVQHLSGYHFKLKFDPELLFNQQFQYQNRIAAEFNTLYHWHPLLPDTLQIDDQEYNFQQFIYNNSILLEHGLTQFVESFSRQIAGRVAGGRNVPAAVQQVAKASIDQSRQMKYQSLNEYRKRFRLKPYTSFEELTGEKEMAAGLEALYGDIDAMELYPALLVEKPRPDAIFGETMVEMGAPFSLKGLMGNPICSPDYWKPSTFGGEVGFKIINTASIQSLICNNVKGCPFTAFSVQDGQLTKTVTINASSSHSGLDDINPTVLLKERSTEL

[1] = molecular target: T2, cyclooxygenase-1 (COX-1 enzyme) (Homo sapiens, UniProt P23219); test: Human whole blood in vitro activity assay, COX-1 (TXB2 by EIA); format: cell-based; conditions: read-out: IC50 (μg/mL) COX-1 (converted)
T2 construct: from tissue; host or cells: human whole blood without heparin (platelets) from healthy volunteers
Experimental: (§1) Human whole blood in vitro activity study: inhibition of activity of cyclooxygenase-1 (COX-1 enzyme) and cyclooxygenase-2 (COX-2 enzyme) in human blood. […] The blood samples were divided into two parts: one was used for detecting COX-1 enzyme activity, and the other was used for detecting COX-2 enzyme activity. The compounds were dissolved in DMSO, and were prepared in advance into 2 μL solutions in respective concentrations of 500, 50, 5, 0.5, 0.05, 0.005, 0.0005 μg/mL. 200 μL whole blood without heparin was added in the tubes containing the compounds, and then incubated at 37° C. for 1 hour. The activity of COX-1 enzyme was detected by determining the amount of thromboxane B2 (TXB2) synthesized by platelet using an EIA kit. Samples tested without the compounds were negative controls. For COX-2, 200 μL whole blood with heparin was added in the tubes containing the compounds and in the tubes containing 10 μg/mL LPS. LPS control and blank control with solvent only were used respectively for determining the maximum value and the background value of the PGE2 produced therefrom. The samples were incubated at 37° C. for 24 hours, and then centrifuged to collect serum/plasma, which was stored at −80° C. for detection by an EIA kit. The EIA kit of Cayman Company was used, the amounts of TXB2 and PGE2 were determined in accordance to the manufacturer's instructions, and the activities of COX-1 and COX-2 were tested respectively.

[2] = molecular target: T3, cyclooxygenase-2 (COX-2 enzyme) (Homo sapiens, UniProt P35354); test: Human whole blood in vitro activity assay, COX-2 (LPS-induced PGE2 by EIA); format: cell-based
T3 construct: from tissue; host or cells: heparinised human whole blood from healthy volunteers, stimulated with LPS
T3 sequence (P35354 18-604): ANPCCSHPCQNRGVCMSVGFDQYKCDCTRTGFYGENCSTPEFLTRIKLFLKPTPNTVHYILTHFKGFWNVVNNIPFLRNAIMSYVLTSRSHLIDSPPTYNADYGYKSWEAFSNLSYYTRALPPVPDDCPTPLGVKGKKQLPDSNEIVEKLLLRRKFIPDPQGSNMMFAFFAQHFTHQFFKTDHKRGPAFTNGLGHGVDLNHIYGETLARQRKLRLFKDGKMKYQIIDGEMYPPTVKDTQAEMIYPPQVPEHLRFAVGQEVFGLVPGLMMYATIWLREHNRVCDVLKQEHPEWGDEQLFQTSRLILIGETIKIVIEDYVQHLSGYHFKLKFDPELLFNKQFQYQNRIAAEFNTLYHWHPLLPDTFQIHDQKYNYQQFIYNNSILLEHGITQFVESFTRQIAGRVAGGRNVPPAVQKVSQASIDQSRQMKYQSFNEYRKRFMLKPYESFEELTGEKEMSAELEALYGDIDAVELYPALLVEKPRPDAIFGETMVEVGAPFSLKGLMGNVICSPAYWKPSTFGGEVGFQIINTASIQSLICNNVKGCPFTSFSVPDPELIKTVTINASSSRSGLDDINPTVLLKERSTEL
Experimental: as §1

T2 sequence (P23219 24-599): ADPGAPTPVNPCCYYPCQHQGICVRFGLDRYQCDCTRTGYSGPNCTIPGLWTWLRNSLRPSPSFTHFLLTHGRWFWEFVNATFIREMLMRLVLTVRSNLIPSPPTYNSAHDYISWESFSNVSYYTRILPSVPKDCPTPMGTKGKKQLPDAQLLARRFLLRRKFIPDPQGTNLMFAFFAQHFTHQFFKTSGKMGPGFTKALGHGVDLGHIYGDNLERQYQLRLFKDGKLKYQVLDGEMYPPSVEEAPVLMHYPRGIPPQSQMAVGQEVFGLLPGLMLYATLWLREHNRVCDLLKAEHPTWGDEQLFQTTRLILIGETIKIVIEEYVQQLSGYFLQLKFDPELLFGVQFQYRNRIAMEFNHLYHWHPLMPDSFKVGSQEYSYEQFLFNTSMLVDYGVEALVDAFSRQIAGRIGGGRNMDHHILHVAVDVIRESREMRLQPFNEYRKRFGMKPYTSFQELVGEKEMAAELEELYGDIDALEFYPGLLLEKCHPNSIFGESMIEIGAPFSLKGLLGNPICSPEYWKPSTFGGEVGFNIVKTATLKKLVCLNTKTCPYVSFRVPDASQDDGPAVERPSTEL

IC50COX-1/IC50COX-2 (COX-2): 83.2 | IC50 (COX-2; read-out: IC50 (μg/mL) COX-2 (converted)): 2.64 µM | IC50 [1]: 39.5 µM | IC50COX-1/IC50COX-2 [2]: 44.0 | IC50 ([2]; LPS, PGE2, read-out: IC50 (μg/mL) COX-2 (converted)): 0.899 µM
SMILES: CS(=O)(=O)c1ccc(-n2cnc(Cl)c2-c2ccccc2)nc1 [Compound 1, 2-(4-chloro-5-phenyl-1H-imidazol-1-yl)-5-(methylsulfonyl)pyridine]
